Data on 1 molecule can be found in ChEMBL document CHEMBL3639268, “Derivatives of N-acyl-N‚Ä=-phenylpiperazine useful (inter alia) for the prophylaxis or treatment of diabetes” (2014).

SMILES strings stand for the structures.

The experiment deals with Retinol-binding protein 4 (Homo sapiens, UniProt P02753). Briefly: Binding Assay: Streptavidin (20 ul) (10 ug/ml Streptavidin type II (Wako Pure Chemical Industries, Ltd.), 10 mM Tris-HCl (pH 7.5), 10 mM NaCl) was added to a 384 well black plate (Nunc MaxiSorp, Thermo Fisher Scientific Inc.), and the plate was subjected to centrifugation (1000 rpm, 1 min) and coated overnight at 4 C. The plate was washed twice with PBST (PBS, 0.05% Tween 20, 100 ul/well) and blocked with 25% Block Ace (Snow Brand Milk Products Co., Ltd., PBS, 100 ul/well). The plate was subjected to centrifugation (1000 rpm, 1 min) and incubated at room temperature for 4 hr or overnight at 4 C. The plate was washed twice with PBST (PBS, 0.05% Tween 20, 100 ul/well), and biotinylate human TTR (stock solution concentration 1.0 mg/ml) diluted 750-fold with PBST was added at 20 ul/well. The plate was subjected to centrifugation (1000 rpm, 1 min) and stood still at room temperature for 1.5 hr or overnight at 4 C. The plate was washed 3 times with PBST (100 ul/well).

Usually IC50 stands for the concentration at which inhibition is half-maximal. Consider `CC(C)(C)c1ccccc1N1CCN(C(=O)c2nc[nH]n2)CC1`, for which the IC50 is 15 nM.
